This passage reports Ki results from patent publication US8501446B2 (Vertex Pharmaceuticals Incorporated, priority 2004, dated 2013).

Like-named read-outs stand apart in the source and are kept apart here.

Assay type in all cases: biochemical
In assay [1] the target is JAK2 (Homo sapiens, UniProt O60674). The experiment in a line: JAK2 inhibition assay (radioactive enzyme assay, as for JAK3). The following applies: average Ki if more than one value determined. Put shortly:
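Both kinases: poly(Glu)4Tyr substrate in 100 mM HEPES pH 7.4, 10 mM MgCl2, 1 mM DTT. Run 20 min at 25° C, TCA stop, filter-bound ³³P counted, Ki(app) fitted after background subtraction. JAK3: final [γ-³³P]ATP 5 μM, enzyme added as 2 nM solution. JAK2: final poly(Glu)4Tyr 15 μM, final ATP 12 μM.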

The target in assay [2] is T1, ROCK I (AA 6-553) (Homo sapiens, UniProt Q13464).
T1 construct: ROCK I (AA 6-553)
T1 sequence (Q13464 6-553, species assumed): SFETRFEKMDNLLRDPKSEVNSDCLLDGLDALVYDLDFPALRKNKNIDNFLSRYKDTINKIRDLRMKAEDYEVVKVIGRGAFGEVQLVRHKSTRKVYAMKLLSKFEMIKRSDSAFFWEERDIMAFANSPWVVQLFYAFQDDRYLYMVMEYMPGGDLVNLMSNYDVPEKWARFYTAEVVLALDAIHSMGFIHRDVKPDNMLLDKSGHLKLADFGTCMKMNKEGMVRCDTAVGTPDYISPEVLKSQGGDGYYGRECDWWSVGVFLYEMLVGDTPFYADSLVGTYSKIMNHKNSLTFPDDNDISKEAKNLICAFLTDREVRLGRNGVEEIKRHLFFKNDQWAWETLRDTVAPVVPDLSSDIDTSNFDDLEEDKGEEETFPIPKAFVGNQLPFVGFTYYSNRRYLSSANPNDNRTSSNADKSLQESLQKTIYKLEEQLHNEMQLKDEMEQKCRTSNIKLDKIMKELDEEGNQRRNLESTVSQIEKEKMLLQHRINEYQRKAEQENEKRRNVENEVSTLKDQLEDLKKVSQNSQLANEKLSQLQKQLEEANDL
The experiment in a line: ROCK inhibition assay, standard coupled enzyme system ("Enzyme"). To be noted: enzyme-linked assay. Put shortly: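 ROCK I (AA 6-553) at 45 nM and 30 °C with 45 μM ATP and 200 μM peptide, in 100 mM HEPES pH 7.5, 10 mM MgCl2, 25 mM NaCl, 2 mM DTT, 1.5% DMSO. ADP output read by a PK/LDH coupled system: 2.5 mM PEP, 350 μM NADH, 30 μg/ml PK, 10 μg/ml LDH.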

Assay [3] deals with T2, full length Aurora-A (AA 1-403) (Homo sapiens, UniProt O14965).
T2 construct: full length Aurora-A (AA 1-403)
T2 sequence (O14965 1-403): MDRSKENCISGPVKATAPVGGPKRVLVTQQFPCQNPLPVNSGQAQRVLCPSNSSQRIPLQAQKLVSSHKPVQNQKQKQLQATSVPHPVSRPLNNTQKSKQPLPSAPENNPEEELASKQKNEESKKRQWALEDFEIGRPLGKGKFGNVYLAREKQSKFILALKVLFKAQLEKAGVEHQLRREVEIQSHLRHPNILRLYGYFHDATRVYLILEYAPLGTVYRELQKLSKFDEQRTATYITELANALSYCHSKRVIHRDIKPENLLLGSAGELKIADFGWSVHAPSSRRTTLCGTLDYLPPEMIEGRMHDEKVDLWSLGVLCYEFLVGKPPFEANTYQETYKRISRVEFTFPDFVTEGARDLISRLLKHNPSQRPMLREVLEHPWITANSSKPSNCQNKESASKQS
The experiment in a line: Aurora-A inhibition assay, standard coupled enzyme system. The following applies: average Ki if more than one value determined.

The target in assay [4] is T3, Aurora-C (Homo sapiens, UniProt Q9UQB9).
T3 sequence (Q9UQB9 1-309): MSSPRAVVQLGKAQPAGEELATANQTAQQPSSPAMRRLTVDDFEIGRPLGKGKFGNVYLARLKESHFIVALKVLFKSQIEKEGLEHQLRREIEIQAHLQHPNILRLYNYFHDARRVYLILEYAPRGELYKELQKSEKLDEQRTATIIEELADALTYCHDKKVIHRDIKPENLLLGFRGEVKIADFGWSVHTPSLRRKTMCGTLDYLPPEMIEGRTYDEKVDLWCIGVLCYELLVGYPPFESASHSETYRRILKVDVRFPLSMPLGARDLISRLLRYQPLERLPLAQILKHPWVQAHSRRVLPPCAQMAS
The experiment in a line: Aurora-C inhibition assay, coupled enzyme system as for Aurora-A. The following applies: average Ki if more than one value determined. The method, then:
Compounds were screened for their ability to inhibit full length Aurora-A (AA 1-403) activity using a standard coupled enzyme system (Fox et al., Protein Sci. 7, pp. 2249 (1998)). Reactions were carried out in a solution containing 100 mM HEPES (pH 7.5), 10 mM MgCl2, 25 mM NaCl, 300 μM NADH, 1 mM DTT and 3% DMSO. Final substrate concentrations in the assay were 200 μM ATP (Sigma Chemicals, St Louis, Mo.) and 800 μM peptide (LRRASLG, American Peptide, Sunnyvale, Calif.). Reactions were carried out at 30° C. and 35 nM Aurora-A. Final concentrations of the components of the coupled enzyme system were 2.5 mM phosphoenolpyruvate, 200 μM NADH, 60 μg/ml pyruvate kinase and 20 μg/ml lactate dehydrogenase.
An assay stock buffer solution was prepared containing all of the reagents listed above with the exception of ATP and the test compound of interest. The assay stock buffer solution (60 μl) was incubated in a 96 well plate with 2 μl of the test compound of interest at final concentrations spanning 0.002 μM to 30 μM at 30° C. for 10 min. Typically, a 12 point titration was conducted by preparing serial dilutions (from 1 mM compound stocks) with DMSO of the test compounds in daughter plates. The reaction was initiated by the addition of 5 μl of ATP (final concentration 200 μM). Rates of reaction were obtained using a Molecular Devices Spectramax plate reader (Sunnyvale, Calif.) over 10 min at 30° C. The Ki values were determined from the rate data as a function of inhibitor concentration using computerized nonlinear regression (Prism 3.0, Graphpad Software, San Diego, Calif.). Aurora-C activity was screened in a similar manner using Aurora-C protein. Aurora-B activity was screened using a radioactive assay, such as described in Examples 1 and 2, but using Aurora-B protein.

Assay [5] deals with Aurora-B (Homo sapiens, UniProt Q96GD4). The experiment in a line: Aurora-B inhibition assay, radioactive assay. The following applies: average Ki if more than one value determined. Put shortly: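 Aurora-B protein substituted into the standard radioactive kinase format: reaction quenched with TCA, product captured on glass fiber filters and 33P counted. Ki(app) derived by fitting background-corrected counts against inhibitor concentration.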
Chain of Aurora-B (Q96GD4 whole entry): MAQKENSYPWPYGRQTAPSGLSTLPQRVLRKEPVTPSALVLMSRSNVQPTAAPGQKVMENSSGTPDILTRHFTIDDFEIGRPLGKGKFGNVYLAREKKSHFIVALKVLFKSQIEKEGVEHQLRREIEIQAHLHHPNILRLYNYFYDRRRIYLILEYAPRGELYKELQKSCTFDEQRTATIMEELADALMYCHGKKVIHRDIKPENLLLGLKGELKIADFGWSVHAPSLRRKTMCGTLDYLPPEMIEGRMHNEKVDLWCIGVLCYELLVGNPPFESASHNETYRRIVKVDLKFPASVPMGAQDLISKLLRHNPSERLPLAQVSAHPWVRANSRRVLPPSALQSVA

The target of assay [6] is ROCK (Homo sapiens, UniProt Q13464). Description: ROCK inhibition assay, standard radioactive enzyme assay ("33P"). The method, then: Some compounds were screened for their ability to inhibit ROCK using a standard radioactive enzyme assay. Assays were carried out in a solution containing 100 mM HEPES (pH 7.5), 10 mM MgCl2, 25 mM NaCl, 2 mM DTT, and 1.5% DMSO. Final substrate concentrations in the assay were 13 μM [γ-^33P] ATP (25 mCi ^33P ATP/mmol ATP, Perkin Elmer, Cambridge, Mass./Sigma Chemicals, St Louis, Mo.) and 27 μM Myelin Basic Protein (MBP). Final enzyme concentration in the assay was 5 nM ROCK. Assays were carried out at room temperature. 1.5 μl of DMSO stock containing serial dilutions of the compound of the present invention (concentrations ranging from 10 μM to 2.6 nM) was placed in a 96 well plate. 50 μl of Solution 1 (100 mM HEPES (pH 7.5), 10 mM MgCl2, […]) was added to the plate. The reaction was initiated by addition of 50 μl of Solution 2 (100 mM HEPES (pH 7.5), 10 mM MgCl2, 4 mM DTT, […] and 10 nM ROCK). After 2 hours the reaction was quenched with 50 μL of 30% trichloroacetic acid (TCA, Fisher) containing 9 mM ATP. Transfer of 140 μL of the quenched reaction to a glass fiber filter plate (Corning, Cat. No. 3511) was followed by washing 3 times with 5% TCA. 50 μL of Optima Gold scintillation fluid (Perkin Elmer) was added and the plates were counted on a Top Count (Perkin Elmer). After removing mean background values for all of the data points the data was fit using Prism software to obtain a Ki(app).
Chain of ROCK (Q13464 whole entry): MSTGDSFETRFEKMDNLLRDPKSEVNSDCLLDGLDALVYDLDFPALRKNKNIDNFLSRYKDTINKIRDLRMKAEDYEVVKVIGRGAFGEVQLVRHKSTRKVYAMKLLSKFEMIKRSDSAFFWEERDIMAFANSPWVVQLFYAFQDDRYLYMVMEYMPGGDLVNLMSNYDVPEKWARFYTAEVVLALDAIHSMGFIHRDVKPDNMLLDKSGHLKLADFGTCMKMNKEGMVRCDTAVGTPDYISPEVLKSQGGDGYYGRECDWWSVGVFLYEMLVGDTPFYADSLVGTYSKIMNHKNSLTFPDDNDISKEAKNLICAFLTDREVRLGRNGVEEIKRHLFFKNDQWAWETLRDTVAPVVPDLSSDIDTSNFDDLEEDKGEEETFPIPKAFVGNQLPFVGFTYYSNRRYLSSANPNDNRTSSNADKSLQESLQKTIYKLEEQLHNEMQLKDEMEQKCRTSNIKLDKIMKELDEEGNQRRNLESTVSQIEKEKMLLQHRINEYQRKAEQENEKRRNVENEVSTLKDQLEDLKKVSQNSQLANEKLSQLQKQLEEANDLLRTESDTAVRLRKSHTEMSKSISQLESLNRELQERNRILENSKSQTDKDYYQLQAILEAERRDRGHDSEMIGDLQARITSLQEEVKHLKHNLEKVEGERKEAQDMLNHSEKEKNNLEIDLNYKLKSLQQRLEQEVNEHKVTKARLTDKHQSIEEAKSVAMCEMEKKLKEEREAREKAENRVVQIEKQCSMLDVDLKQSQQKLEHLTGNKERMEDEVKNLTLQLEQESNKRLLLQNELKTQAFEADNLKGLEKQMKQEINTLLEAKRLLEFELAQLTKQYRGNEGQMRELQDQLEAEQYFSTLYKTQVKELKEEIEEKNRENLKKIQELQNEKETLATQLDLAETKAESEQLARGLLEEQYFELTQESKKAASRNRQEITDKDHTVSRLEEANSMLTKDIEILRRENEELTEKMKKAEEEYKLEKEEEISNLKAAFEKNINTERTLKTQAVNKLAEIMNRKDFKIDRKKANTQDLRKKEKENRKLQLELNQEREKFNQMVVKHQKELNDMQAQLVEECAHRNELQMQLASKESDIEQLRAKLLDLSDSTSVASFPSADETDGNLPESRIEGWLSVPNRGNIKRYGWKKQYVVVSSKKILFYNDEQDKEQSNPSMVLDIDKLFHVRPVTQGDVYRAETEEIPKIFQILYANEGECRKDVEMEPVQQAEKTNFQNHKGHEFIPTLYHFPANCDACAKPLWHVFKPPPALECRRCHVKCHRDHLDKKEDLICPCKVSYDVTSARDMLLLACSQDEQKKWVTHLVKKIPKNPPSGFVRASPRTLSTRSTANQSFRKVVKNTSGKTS

Chain of JAK2 (O60674 whole entry, species assumed): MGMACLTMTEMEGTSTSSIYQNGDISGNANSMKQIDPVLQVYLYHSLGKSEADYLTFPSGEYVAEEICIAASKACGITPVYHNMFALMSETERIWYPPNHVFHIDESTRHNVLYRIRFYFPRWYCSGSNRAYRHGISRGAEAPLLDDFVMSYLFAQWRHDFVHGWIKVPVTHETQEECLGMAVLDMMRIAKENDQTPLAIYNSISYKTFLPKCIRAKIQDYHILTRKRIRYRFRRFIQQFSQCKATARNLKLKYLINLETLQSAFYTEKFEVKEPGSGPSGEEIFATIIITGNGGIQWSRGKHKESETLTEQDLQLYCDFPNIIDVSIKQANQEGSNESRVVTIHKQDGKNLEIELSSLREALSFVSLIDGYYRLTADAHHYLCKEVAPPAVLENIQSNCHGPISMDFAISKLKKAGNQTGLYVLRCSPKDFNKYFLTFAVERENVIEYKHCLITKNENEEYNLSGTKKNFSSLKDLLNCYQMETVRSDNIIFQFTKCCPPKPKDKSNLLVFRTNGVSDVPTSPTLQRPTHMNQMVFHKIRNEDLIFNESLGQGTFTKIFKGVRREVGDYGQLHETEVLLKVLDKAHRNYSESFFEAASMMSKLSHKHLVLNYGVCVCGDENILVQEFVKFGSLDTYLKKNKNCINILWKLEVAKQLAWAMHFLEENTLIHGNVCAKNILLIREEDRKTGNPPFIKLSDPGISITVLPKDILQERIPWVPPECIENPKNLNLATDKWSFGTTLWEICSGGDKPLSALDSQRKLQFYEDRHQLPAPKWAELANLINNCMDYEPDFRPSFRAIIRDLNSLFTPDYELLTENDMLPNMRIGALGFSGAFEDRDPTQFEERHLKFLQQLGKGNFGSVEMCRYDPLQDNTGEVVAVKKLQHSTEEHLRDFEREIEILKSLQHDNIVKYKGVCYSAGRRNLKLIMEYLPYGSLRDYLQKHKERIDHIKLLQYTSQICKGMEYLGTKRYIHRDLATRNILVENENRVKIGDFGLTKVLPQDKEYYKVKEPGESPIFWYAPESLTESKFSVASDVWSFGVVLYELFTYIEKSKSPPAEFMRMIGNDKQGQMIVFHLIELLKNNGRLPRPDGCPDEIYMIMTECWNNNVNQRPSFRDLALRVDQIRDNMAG

With `CC(=O)NCCNC(=O)[C@H](C)Nc1nc(-c2c[nH]c3ncc(Cl)cc23)ncc1F` [Compound 444], the Ki in assay [1] was 500 to 5000 nM; in assay [2] it was 500 to 5000 nM; in assay [3], less than 500 nM; in assay [4], less than 500 nM; in assay [5] it was less than 500 nM.
For the compound `CCOc1cccc(-c2c[nH]c3ncc(-c4ccccc4)cc23)c1` [Compound 215], the Ki in assay [6] and in assay [3] was 500 to 5000 nM throughout.
Take `CCc1cnc(-c2c[nH]c3ncc(Cl)cc23)nc1N[C@@H](C)c1ccc(F)cc1` [Compound 386]: the Ki in assay [1] is less than 500 nM; in assay [2], 500 to 5000 nM; in assay [3], less than 500 nM; in assay [4], less than 500 nM; in assay [5], less than 500 nM.
As to `COc1cccc(-c2c[nH]c3ncc(-c4ccccc4)cc23)c1` [Compound 214], the Ki in assay [6] and in assay [3] was 500 to 5000 nM in each case.
With `COc1cc(-c2c[nH]c3ncccc23)ccc1C(N)=O` [Compound 31, 2-Methoxy-4-(1H-pyrrolo[2,3-b]pyridin-3-yl)-benzamide], the Ki in assay [6] (Ki(app)) and in assay [3] was less than 500 nM in each case.
As to `C[C@H](Nc1nc(-c2c[nH]c3ncc(Cl)cc23)ncc1C(F)(F)F)c1ccc(F)cc1` [Compound 371], the Ki in assay [1] is less than 500 nM; in assay [2] it was 500 to 5000 nM; in assay [3], less than 500 nM; in assay [4], less than 500 nM; in assay [5], less than 500 nM.
`C[C@H](Nc1nc(-c2c[nH]c3ncc(Cl)cc23)ncc1F)C(=O)NCCc1ccc(S(N)(=O)=O)cc1` [Compound 446]: the Ki in assay [1] is 500 to 5000 nM; in assay [2] it was 500 to 5000 nM; in assay [3] it was less than 500 nM; in assay [4], less than 500 nM; in assay [5] it was less than 500 nM.
On to `CNCCNC(=O)[C@H](C)Nc1nc(-c2c[nH]c3ncc(Cl)cc23)ncc1F` [Compound 452], for which the Ki in assay [2] was 500 to 5000 nM; in assay [3], less than 500 nM; in assay [4], less than 500 nM; in assay [5], less than 500 nM.
Regarding `C[C@H](Nc1cc(C(=O)O)nc(-c2c[nH]c3ncc(Cl)cc23)n1)c1ccc(F)cc1` [Compound 323], the Ki was 500 to 5000 nM in assay [2], less than 500 nM in assay [3], less than 500 nM in assay [4] and less than 500 nM in assay [5].
For `Fc1cnc(-c2c[nH]c3ncc(Cl)cc23)nc1NCC1CCCN1` (stereo not shown) [Compound 328], the Ki in assay [2] is 500 to 5000 nM; in assay [3] it was less than 500 nM; in assay [4], less than 500 nM; in assay [5], less than 500 nM.
Turning to `C[C@H](Nc1nc(-c2c[nH]c3ncc(Cl)cc23)ncc1F)C1CCCCC1` [Compound 355], the Ki in assay [2] was 500 to 5000 nM; in assay [3] it was less than 500 nM; in assay [4] it was less than 500 nM; in assay [5], less than 500 nM.
Regarding `C[C@H](Nc1nc(-c2c[nH]c3ncc(Cl)cc23)ncc1C(=O)O)c1ccc(F)cc1` [Compound 370], the Ki in assay [2] is 500 to 5000 nM; in assay [3], less than 500 nM; in assay [4], less than 500 nM; in assay [5], less than 500 nM.
For the compound `C[C@H](Nc1nc(-c2c[nH]c3ncc(Cl)cc23)ncc1F)C(=O)NCCn1cccc1` [Compound 443], the Ki was less than 500 nM in assay [1]; 500 to 5000 nM in assay [2]; less than 500 nM in assay [3]; less than 500 nM in assay [4]; less than 500 nM in assay [5].
Turning to `C[C@H](Nc1nc(-c2c[nH]c3ncc(Cl)cc23)ncc1F)C(=O)NCCN` [Compound 431], the Ki is 500 to 5000 nM in assay [2], less than 500 nM in assay [3], less than 500 nM in assay [4] and less than 500 nM in assay [5].
As for `C[C@H](Nc1nc(-c2c[nH]c3ncc(Cl)cc23)ncc1F)c1cccc(O[C@H]2CCNC2)c1` [Compound 321], the Ki was 500 to 5000 nM in assay [2], less than 500 nM in assay [3], less than 500 nM in assay [4] and 500 to 5000 nM in assay [5].
Consider `Fc1cnc(-c2c[nH]c3ncc(Cl)cc23)nc1NCC1CCNC1` (stereo not shown) [Compound 329], for which the Ki in assay [2], in assay [3], in assay [4] and in assay [5] was less than 500 nM throughout.
Regarding `CCSCCNC(=O)[C@H](C)Nc1nc(-c2c[nH]c3ncc(Cl)cc23)ncc1F` [Compound 447], the Ki in assay [2] is 500 to 5000 nM; in assay [3] it was less than 500 nM; in assay [4] it was 500 to 5000 nM; in assay [5], 500 to 5000 nM.
On to `CC[C@H](Nc1nc(-c2c[nH]c3ncc(Cl)cc23)ncc1F)C(=O)NC` [Compound 361], for which the Ki is 500 to 5000 nM in assay [2], less than 500 nM in assay [3], less than 500 nM in assay [4] and less than 500 nM in assay [5].
On to `Fc1cnc(-c2c[nH]c3ncc(Cl)cc23)nc1NCc1cccc(Cl)c1` [Compound 312], for which the Ki in assay [2] is 500 to 5000 nM; in assay [3] it was less than 500 nM; in assay [4], less than 500 nM; in assay [5], less than 500 nM.
For the compound `Clc1ccc(CNc2ccnc(-c3c[nH]c4ncc(Cl)cc34)n2)cc1` [Compound 237], the Ki in assay [2] is 500 to 5000 nM; in assay [3], less than 500 nM; in assay [4] it was less than 500 nM; in assay [5], less than 500 nM.
For the compound `Fc1cnc(-c2c[nH]c3ncc(Cl)cc23)nc1NCc1cccnc1` [Compound 317], the Ki in assay [2] was 500 to 5000 nM; in assay [3] it was less than 500 nM; in assay [4] it was less than 500 nM; in assay [5], less than 500 nM.
As to `Cc1cc(N[C@@H](C)C(=O)NCCNS(C)(=O)=O)nc(-c2c[nH]c3ncc(Cl)cc23)n1` [Compound 450], the Ki is 500 to 5000 nM in assay [1]; 500 to 5000 nM in assay [2]; less than 500 nM in assay [3]; less than 500 nM in assay [4]; less than 500 nM in assay [5].
